Data reported in paper PMC3157558, “Huprines as a new family of dual acting trypanocidal–antiplasmodial agents” (Bioorganic & Medicinal Chemistry, 2011).
Structures can show the parent of a compound that is named as a salt. Where two headings read alike, the source gives them in different places.

Assays:
in vitro = type: cell-based, Trypanosoma brucei; conditions: 427, rat
Procedure: (§1) Trypanocidal activity was assessed by growing parasites for 48 h in the presence of various drug concentrations and determining the levels which inhibited growth by 50% (IC50) and 90% (IC90). In the case of untreated cultures, cell densities increased from 0.25 × 10^5 to 1 × 10^6 over this period. Cell densities at each drug concentration were determined using a hemocytometer and drug sensitivity was expressed as a percentage of growth of control cells.

[1] = test system: bloodstream form T. brucei; test: microbe, parasite or virus in culture; type: cell-based, Trypanosoma brucei; conditions: for SI (selectivity index, ratio of cytotoxic to trypanocidal IC50 values): IC50 against L6 cells/IC50 against T. brucei
Procedure: as §1

[2] = test system: rat skeletal myoblast L6 cells; test: Cytotoxic activity against rat skeletal myoblast L6 cells (Alamar Blue); type: cell-based; conditions: 6 days incubation, mean of triplicate ± SEM
Procedure: Cytotoxicity against mammalian cells was assessed using microtitre plates following a described procedure.[41] Briefly, L6 cells (a rat skeletal muscle line) were seeded at 1 × 10^4 ml^−1 in 200 μL of growth medium containing different compound concentrations. The plates were incubated for 6 days at 37 °C and 20 μL Alamar Blue (Biosource UK Ltd) was then added to each well. After a further 8 h incubation, the fluorescence was determined using a Gemini fluorescent plate reader (Molecular Devices).

acetylcholinesterase = test system: acetylcholinesterase; set-up: method as in PMID 10464010, PMID 11101357; conditions: cited from earlier work
[3] = test system: memory and learning activities; conditions: cited from earlier work
[4] = test system: Alzheimer's disease related brain neuropathology; set-up: method as in PMID 20689242; conditions: transgenic mouse model; cited from earlier work
[5] = Trypanosoma brucei, bloodstream form T. brucei, pH 7.4, 48 h growth, concentration inhibiting growth by 90%, mean of triplicate ± SEM, read-out: T. brucei IC90
[6] = Trypanosoma brucei, bloodstream form T. brucei, pH 7.4, 48 h growth, mean of triplicate experiments ± SEM, read-out: T. brucei IC50
[7] = Trypanosoma brucei, 48 h, pH 7.4, read-out: T. brucei IC50
[8] = Trypanosoma brucei, 48 h, pH 7.4, read-out: T. brucei IC90
[9] = bloodstream form T. brucei, pH 7.4, 48 h growth, concentration inhibiting growth by 90%, mean of triplicate ± SEM, read-out: T. brucei IC90
[10] = bloodstream form T. brucei, pH 7.4, 48 h growth, mean of triplicate experiments ± SEM, read-out: T. brucei IC50

SMILES	IC90 [1, 5]	IC50 [1, 6]	IC90 [1, 9]	IC50 [1, 10]	SI (selectivity index, ratio of cytotoxic to trypanocidal IC50 values) [1]	IC50 [2]	also measured
CC1=CC2Cc3nc4cc(Cl)ccc4c(N)c3C(C1)C2 (stereo not drawn) [huprine 3]	2.94 ± 0.2 µM	0.61 ± 0.03 µM	–	–	–	–	selectivity ratio (in vitro): 12.8; IC50 ([2]; 144 h): 7.8 ± 0.47 µM; acetylcholinesterase inhibitory potency (rank in words) (acetylcholinesterase): most potent acetylcholinesterase inhibitors
CCC1=CC2Cc3nc4cc(Cl)ccc4c(N)c3[C@@H](C1)C2 [huprine 4]	1.76 ± 0.2 µM	0.84 ± 0.06 µM	–	–	–	–	IC50 ([2]; 144 h): 12.5 ± 0.4 µM; adverse effects in behavioural studies ([3]; behavioural studies in mice): did not induce adverse effects; effect on memory and learning activities ([3]; middle aged mice): ameliorate memory and learning activities; effect on Alzheimer's disease related brain neuropathology [4]: ameliorate; acetylcholinesterase inhibitory potency (rank in words) (acetylcholinesterase): most potent acetylcholinesterase inhibitors
CC(C)C1=CC2Cc3nc4ccccc4c(N)c3C(C1)C2 (stereo not drawn) [huprine 5]	–	–	–	–	–	–	IC50 [1, 7]: 2.06 ± 0.44 µM; IC90 [1, 8]: 4.76 ± 0.82 µM
C=CCC1=CC2Cc3nc4ccccc4c(N)c3C(C1)C2 (stereo not drawn) [huprine 6]	8.52 ± 0.19 µM	4.08 ± 0.45 µM	–	–	–	–	–
CC(C)C1=CC2Cc3nc4cc(Cl)ccc4c(N)c3C(C1)C2 (stereo not drawn) [huprine 8, 12-Amino-3-chloro-6,7,10,11-tetrahydro-9-isopropyl-7,11-methanocycloocta[b]quinoline hydrochloride]	–	–	4.34 ± 0.03 µM	2.45 ± 0.37 µM	–	–	–
C=CCC1=CC2Cc3nc4cc(Cl)ccc4c(N)c3C(C1)C2 (stereo not drawn) [huprine 9, 9-Allyl-12-amino-3-chloro-6,7,10,11-tetrahydro-7,11-methanocycloocta[b]quinoline hydrochloride]	2.87 ± 0.18 µM	0.76 ± 0.07 µM	–	–	–	–	selectivity ratio (in vitro; IC50 against L6 cells/IC50 against T. brucei, read-out: SI (selectivity index, ratio of cytotoxic to trypanocidal IC50 values)): 16.3; IC50 ([2]; 144 h): 12.4 ± 0.4 µM
CC(C)C1=CC2Cc3nc4cccc(F)c4c(N)c3C(C1)C2 (stereo not drawn) [huprine 10, 12-Amino-1-fluoro-6,7,10,11-tetrahydro-9-isopropyl-7,11-methanocycloocta[b]quinoline hydrochloride]	–	–	7.75 ± 0.23 µM	2.6 ± 0.55 µM	–	–	–
C=CCC1=CC2Cc3nc4cccc(F)c4c(N)c3C(C1)C2 (stereo not drawn) [huprine 11, 9-Allyl-12-amino-1-fluoro-6,7,10,11-tetrahydro-7,11-methanocycloocta[b]quinoline hydrochloride]	–	–	–	–	–	–	IC50 [1, 7]: 3.62 ± 0.54 µM; IC90 [1, 8]: 8.73 ± 0.69 µM
CCC1=CC2Cc3nc4ccccc4c(N)c3C(C1)C2 (stereo not drawn) [huprine 12]	–	–	4.53 ± 0.16 µM	1.29 ± 0.16 µM	12.1	15.6 ± 1.6 µM	–
CC(C)(C)C1=CC2Cc3nc4ccccc4c(N)c3C(C1)C2 (stereo not drawn) [huprine 14]	–	–	3.05 ± 0.03 µM	0.88 ± 0.26 µM	13.2	11.6 ± 0.5 µM	acetylcholinesterase inhibitory potency (rank in words) (acetylcholinesterase): least potent acetylcholinesterase inhibitors
CC1=CC2Cc3nc4cc(C)ccc4c(N)c3C(C1)C2 (stereo not drawn) [huprine 17]	–	–	3.31 ± 0.59 µM	1.04 ± 0.05 µM	19.2	20 ± 0.5 µM	–
CCC1=CC2Cc3nc4cccc(Cl)c4c(N)c3C(C1)C2 (stereo not drawn) [huprine 18]	–	–	3.11 ± 0.29 µM	1.36 ± 0.19 µM	15.7	21.3 ± 1.3 µM	–
CCC1=CC2Cc3nc4cccc(C)c4c(N)c3C(C1)C2 (stereo not drawn) [huprine 20]	–	–	8.86 ± 0.15 µM	5.28 ± 1.11 µM	–	–	–
